Twelve compounds from patent US20240343694A1, “PYRIMIDINE DERIVATIVE, METHOD FOR PREPARING SAME, AND PHARMACEUTICAL COMPOSITION FOR PREVENTING OR TREATING CANCER COMPRISING SAME AS ACTIVE INGREDIENT” (KOREA RESERARCH INSTITUTE OF CHEMICAL TECHNOLOGY, priority 2021, published 2024) can be followed below.

The target in test [1] is EGFR A763_Y764insFHEA (Homo sapiens (Human), UniProt P00533, INS763FHEA). Nature of the test: HTRF inhibitory activity against EGFR mutant enzyme (EGFR A763_Y764insFHEA). Type of test: biochemical. Conditions: recombinant enzyme, 37° C. for 2 hours. A digest of the protocol: (§1)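 IC50 was derived from 7 concentrations by HTRF: Eu-anti-pTyr and streptavidin-XL665 for 1 h at room temperature, with the 615/665 nm ratio read. The kinase reaction ran 2 h at 37 °C in Tris pH 7.5 buffer with ATP (stated 50 mM) and biotinylated peptide (0.5 mM). Enzyme was preincubated with compound before substrate was added.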

Test [2] relates to Ba/F3 HER2 A775_G776insYVMA. Nature of the test: Growth inhibition of Ba/F3 HER2 mutant cells (CellTiter-Glo). In kind it is cell-based. Conditions: Mus musculus, BaF3, 72 hours. A digest of the protocol: (§2)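 Ba/F3 cells carrying HER2 A775_G776insYVMA or G776delinsVC were seeded at 1,000 cells/well and dosed 24 h later at 0.01-10 μM (8 concentrations including 0). After 72 h, viability was read as cellular ATP by CellTiter-Glo luminescence, and IC50 values were calculated from the 8-point curves.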

In test [3] the test system is Ba/F3 HER2 G776delinsVC. The test is described as above. In kind it is cell-based. Conditions: Mus musculus, BaF3, 72 hours. The procedure, abridged: as §2
Test [4] concerns the target HER2 A775_G776insYVMA (Homo sapiens (Human), UniProt P04626, INS775YVMA). Nature of the test: HTRF inhibitory activity against HER2 mutant enzyme. In kind it is biochemical. Conditions: recombinant enzyme, 37° C. for 2 hours. A digest of the protocol: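 Recombinant HER2 A775_G776insYVMA preincubated with compound, then […] and biotinylated peptide ([…]) added; 2 h at 37 °C in Tris-HCl pH 7.5 buffer with MgCl2, DTT. HTRF detection (Eu anti-phosphotyrosine/streptavidin-XL665); IC50 from 7 concentrations.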

The target in test [5] is EGFR del19 (Homo sapiens (Human), UniProt P00533, DEL746-750). Nature of the test: HTRF inhibitory activity against EGFR mutant enzyme (EGFR del19). The conditions noted are these: recombinant enzyme, 37° C. for 2 hours. In kind it is biochemical. The procedure, abridged: as §1
The subject of test [6] is Ba/F3 EGFR V769_D770insASV. Nature of the test: Growth inhibition of Ba/F3 EGFR mutant cells (CellTiter-Glo). In kind it is cell-based. Conditions: 72 hours. The procedure, abridged:
(§3)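 Ba/F3 cells expressing either EGFR insertion mutant were seeded at 1,000 cells/well and dosed 24 h later at eight concentrations from 0 to 10 μM. After 72 h, viability was read by CellTiter-Glo ATP signal. IC50 (μM) was fitted from the eight-point curves.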

Test [7] relates to Ba/F3 EGFR D770_N771insSVD. The test is described as above. In kind it is cell-based. The conditions noted are these: Ba/F3 EGFR-D770-N771ins_SVD, 72 hours. The procedure, abridged:
as §3

Sequence of EGFR A763_Y764insFHEA (P00533 other isoform, or with tags, fused parts or gaps del 1-694/ins FHEA behind 763 limits assumed): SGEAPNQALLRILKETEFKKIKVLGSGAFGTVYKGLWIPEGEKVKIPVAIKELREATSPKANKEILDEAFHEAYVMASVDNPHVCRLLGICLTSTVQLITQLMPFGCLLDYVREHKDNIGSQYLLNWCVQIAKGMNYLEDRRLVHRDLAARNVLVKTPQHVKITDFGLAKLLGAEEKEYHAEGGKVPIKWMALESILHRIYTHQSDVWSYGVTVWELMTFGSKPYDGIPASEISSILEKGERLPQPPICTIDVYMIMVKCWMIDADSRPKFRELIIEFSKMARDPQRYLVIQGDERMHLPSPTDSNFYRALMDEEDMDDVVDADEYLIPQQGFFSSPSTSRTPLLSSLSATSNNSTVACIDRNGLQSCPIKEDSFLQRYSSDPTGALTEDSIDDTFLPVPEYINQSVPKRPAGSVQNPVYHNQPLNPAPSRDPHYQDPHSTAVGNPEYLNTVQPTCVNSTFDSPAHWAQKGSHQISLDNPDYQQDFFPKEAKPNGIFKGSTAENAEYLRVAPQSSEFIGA
Sequence of EGFR del19 (P00533 other isoform, or with tags, fused parts or gaps del 1-668/del 746-750 limits assumed): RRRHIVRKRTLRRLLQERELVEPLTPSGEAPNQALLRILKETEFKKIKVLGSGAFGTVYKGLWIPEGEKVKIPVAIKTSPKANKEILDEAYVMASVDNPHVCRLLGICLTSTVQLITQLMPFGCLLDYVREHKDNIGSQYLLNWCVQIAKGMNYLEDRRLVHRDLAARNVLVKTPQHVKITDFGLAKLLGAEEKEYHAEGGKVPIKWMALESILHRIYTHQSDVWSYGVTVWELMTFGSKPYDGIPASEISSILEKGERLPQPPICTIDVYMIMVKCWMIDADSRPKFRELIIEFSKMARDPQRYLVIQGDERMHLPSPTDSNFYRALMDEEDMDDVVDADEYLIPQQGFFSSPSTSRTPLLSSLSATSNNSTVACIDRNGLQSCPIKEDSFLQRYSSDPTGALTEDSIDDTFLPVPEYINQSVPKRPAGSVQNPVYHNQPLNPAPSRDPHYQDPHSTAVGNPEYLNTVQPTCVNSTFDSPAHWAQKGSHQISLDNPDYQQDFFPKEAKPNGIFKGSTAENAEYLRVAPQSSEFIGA
Sequence of HER2 A775_G776insYVMA (P04626 other isoform, or with tags, fused parts or gaps del 1-675/ins YVMA behind 775 limits assumed): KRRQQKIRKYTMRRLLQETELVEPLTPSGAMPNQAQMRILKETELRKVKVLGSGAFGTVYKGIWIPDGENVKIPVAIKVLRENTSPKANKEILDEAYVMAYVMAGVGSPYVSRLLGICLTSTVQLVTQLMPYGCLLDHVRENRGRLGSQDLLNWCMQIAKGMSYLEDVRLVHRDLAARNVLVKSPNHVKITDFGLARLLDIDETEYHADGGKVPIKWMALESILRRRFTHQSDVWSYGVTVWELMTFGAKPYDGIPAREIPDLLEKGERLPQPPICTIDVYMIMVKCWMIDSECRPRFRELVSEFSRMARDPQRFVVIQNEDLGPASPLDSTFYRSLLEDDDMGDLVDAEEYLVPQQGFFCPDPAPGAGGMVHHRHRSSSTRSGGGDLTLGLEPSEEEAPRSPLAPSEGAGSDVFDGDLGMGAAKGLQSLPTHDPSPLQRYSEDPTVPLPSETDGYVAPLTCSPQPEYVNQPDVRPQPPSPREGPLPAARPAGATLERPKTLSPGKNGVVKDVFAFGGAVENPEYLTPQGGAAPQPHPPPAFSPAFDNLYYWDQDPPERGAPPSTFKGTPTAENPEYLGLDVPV

For `C=CC(=O)Nc1cc(Nc2ncc(Cl)c(Nc3ccccc3N(C)C(C)=O)n2)c(OC)cc1N(C)CCN(C)C` [Example 89, N-(5-((5-chloro-4-((2-(N-methylacetamido)phenyl)amino)pyrimidin-2-yl)amino)-2-((2-(dimethylamino)ethyl)(methyl)amino)-4-methoxyphenyl)acrylamide], the 50% inhibitory concentration (IC50) in test [1] was 77 nM; in test [2], above 100 nM; in test [3], 10 to 30 nM; in test [4] it was 479 nM; in test [5], 20 nM; in test [6] it was 30 to 50 nM. The IC50 in test [7] is 30 to 50 nM.

As for `C=CC(=O)Nc1cc(Nc2ncc(Cl)c(Nc3ccccc3NC(C)=O)n2)c(OC)cc1N(C)CCN(C)C` [Example 90, N-(5-((4-((2-acetamidophenyl)amino)-5-chloropyrimidin-2-yl)amino)-2-((2-(dimethylamino)ethyl)(methyl)amino)-4-methoxyphenyl)acrylamide], the IC50 was 7 nM in test [1]; above 100 nM in test [2]; below 10 nM in test [3]; 37 nM in test [4]; 1 nM in test [5]; 30 to 50 nM in test [6]. For the same compound, in test [7], the IC50 fell in the range of 30 to 50 nM.

Take `C=CC(=O)Nc1cc(Nc2ncc(Cl)c(Nc3cccc4c3N(C(C)=O)CC4)n2)c(OC)cc1N(C)CCN(C)C` [Example 91, N-(5-((4-((1-acetylindolin-7-yl)amino)-5-chloropyrimidin-2-yl)amino)-2-((2-(dimethylamino)ethyl)(methyl)amino)-4-methoxyphenyl)acrylamide]: the IC50 in test [1] was 1 nM; in test [2], below 10 nM; in test [3], below 10 nM; in test [4], 6 nM; in test [5] it was below 1 nM; in test [6] it was below 10 nM. In test [7], this compound yielded an IC50 below 10 nM.

With `C=CC(=O)Nc1cc(Nc2ncc(Cl)c(Nc3cccc4c3N(C(C)=O)CC4)n2)c(OC)cc1N(C)CCNC` [Example 92, N-(5-((4-((1-acetylindolin-7-yl)amino)-5-chloropyrimidin-2-yl)amino)-4-methoxy-2-(methyl(2-(methylamino)ethyl)amino)phenyl)acrylamide], the IC50 in test [1] was 1 nM; in test [2], 30 to 50 nM; in test [3], below 10 nM; in test [4], 5 nM; in test [5], below 1 nM; in test [6] it was 10 to 30 nM. In addition, the IC50 in test [7] lay in the range of 10 to 30 nM.

As to `C=CC(=O)Nc1cc(Nc2ncc(Cl)c(Nc3cccc4c3N(C(=O)CC)CC4)n2)c(OC)cc1N(C)CCN(C)C` [Example 93, N-(5-((5-chloro-4-((1-propionylindolin-7-yl)amino)pyrimidin-2-yl)amino)-2-((2-(dimethylamino)ethyl)(methyl)amino)-4-methoxyphenyl)acrylamide], the IC50 in test [1] was 2 nM; in test [2], 10 to 30 nM; in test [3] it was below 10 nM; in test [4], 11 nM; in test [5], 1 nM; in test [6], 10 to 30 nM. Further, the IC50 in test [7] lay within 10 to 30 nM.

Consider `C=CC(=O)Nc1cc(Nc2ncc(Cl)c(Nc3cccc4c3N(C(=O)CC)CCC4)n2)c(OC)cc1N(C)CCN(C)C` [Example 94, N-(5-((5-chloro-4-((1-propionyl-1,2,3,4-tetrahydroquinolin-8-yl)amino)pyrimidin-2-yl)amino)-2-((2-(dimethylamino)ethyl)(methyl)amino)-4-methoxyphenyl)acrylamide], for which the IC50 in test [1] is 22 nM; in test [2], above 100 nM; in test [3], below 10 nM; in test [4] it was 292 nM; in test [5], 4 nM; in test [6], 10 to 30 nM. Moreover, the IC50 in test [7] was in the range of 10 to 30 nM.

Take `C=CC(=O)Nc1cc(Nc2ncc(Cl)c(Nc3cccc4c3N(C(C)=O)CCC4)n2)c(OC)cc1N(C)CCN(C)C` [Example 95, N-(5-((4-((1-acetyl-1,2,3,4-tetrahydroquinolin-8-yl)amino)-5-chloropyrimidin-2-yl)amino)-2-((2-(dimethylamino)ethyl)(methyl)amino)-4-methoxyphenyl)acrylamide]: the IC50 in test [1] was 11 nM; in test [2], 30 to 50 nM; in test [3], below 10 nM; in test [4] it was 54 nM; in test [5], 2 nM; in test [6] it was 10 to 30 nM. This compound came in with an IC50 in test [7] of 10 to 30 nM.

As for `CC#CC(=O)Nc1cc(Nc2ncc(Cl)c(Nc3cccc4c3N(S(C)(=O)=O)CC4)n2)c(OC)cc1N(C)CCN(C)C` [Example 96, N-(5-((5-chloro-4-((1-(methylsulfonyl)indolin-7-yl)amino)pyrimidin-2-yl)amino)-2-((2-(dimethylamino)ethyl)(methyl)amino)-4-methoxyphenyl) but-2-inamide], the IC50 in test [1] was 10 nM; in test [2], above 100 nM; in test [3], below 10 nM; in test [4] it was 87 nM; in test [5] it was 1 nM; in test [6], below 10 nM. The same compound had an IC50 in test [7] below 10 nM.

On to `CC#CC(=O)Nc1cc(Nc2ncc(Cl)c(Nc3cccc4c3N(C(C)=O)CC4)n2)c(OC)cc1N(C)CCN(C)C` [Example 97, N-(5-((4-((1-acetylindolin-7-yl)amino)-5-chloropyrimidin-2-yl)amino)-2-((2-(dimethylamino)ethyl)(methyl)amino)-4-methoxyphenyl) but-2-inamide], for which the IC50 in test [1] was 280 nM; in test [2] it was above 100 nM; in test [3] it was below 10 nM; in test [4] it was 258 nM; in test [5], 15 nM; in test [6], 10 to 30 nM. This compound also gave an IC50 in test [7] of 10 to 30 nM.

Take `CC#CC(=O)Nc1cc(Nc2ncc(Cl)c(Nc3ccc(C)cc3N(C)S(C)(=O)=O)n2)c(OC)cc1N(C)CCN(C)C` [Example 98, N-(5-((5-chloro-4-((4-methyl-2-(N-methylmethylsulfonamido)phenyl)amino)pyrimidin-2-yl)amino)-2-((2-(dimethylamino)ethyl)(methyl)amino)-4-methoxyphenyl) but-2-inamide]: the IC50 in test [1] was 9 nM; in test [2], above 100 nM; in test [3], below 10 nM; in test [4] it was 53 nM; in test [5], below 1 nM; in test [6], 10 to 30 nM. Moreover, the IC50 in test [7] lay in the range of 10 to 30 nM.

In the case of `C=CC(=O)Nc1cc(Nc2ncc(C#N)c(Nc3cccc4c3N(C(C)=O)CC4)n2)c(OC)cc1N(C)CCN(C)C` [Example 99, N-(5-((4-((1-acetylindolin-7-yl)amino)-5-cyanopyrimidin-2-yl)amino)-2-((2-(dimethylamino)ethyl)(methyl)amino)-4-methoxyphenyl)acrylamide], the IC50 was 3 nM in test [1]; 10 to 30 nM in test [2]; below 10 nM in test [3]; 19 nM in test [4]; 1 nM in test [5]; 10 to 30 nM in test [6]. In test [7], this compound yielded an IC50 of 10 to 30 nM.

For `C=CC(=O)Nc1cc(Nc2nccc(Nc3cccc4c3N(C(C)=O)CC4)n2)c(OC)cc1N(C)CCN(C)C` [Example 100, N-(5-((4-((1-acetylindolin-7-yl)amino)pyrimidin-2-yl)amino)-2-((2-(dimethylamino)ethyl)(methyl)amino)-4-methoxyphenyl)acrylamide], the IC50 was 9 nM in test [1]; above 100 nM in test [2]; below 10 nM in test [3]; 225 nM in test [4]; 3 nM in test [5]; 10 to 30 nM in test [6]. In addition, the IC50 in test [7] was in the range of 10 to 30 nM.
